In this assay the target is T1, ΔF508-CFTR (Homo sapiens, UniProt P13569, DEL508-508).
T1 construct: expressed in transfected cells; host or cells: NIH3T3 mouse fibroblasts, stably expressing, temperature-corrected at 27 °C
Briefly: Membrane potential optical assay, identification of potentiator compounds. It is filed as cell-based. To be noted: assay not specified; ΔF508-CFTR potentiation, NIH 3T3 cells. The source says: Membrane Potential Optical Methods for Assaying ΔF508-CFTR Modulation Properties of Compounds
The assay utilizes fluorescent voltage sensing dyes to measure changes in membrane potential using a fluorescent plate reader (e.g., FLIPR III, Molecular Devices, Inc.) as a readout for increase in functional ΔF508-CFTR in NIH 3T3 cells. The driving force for the response is the creation of a chloride ion gradient in conjunction with channel activation by a single liquid addition step after the cells have previously been treated with compounds and subsequently loaded with a voltage sensing dye.
Identification of Potentiator Compounds
To identify potentiators of ΔF508-CFTR, a double-addition HTS assay format was developed. This HTS assay utilizes fluorescent voltage sensing dyes to measure changes in membrane potential on the FLIPR III as a measurement for increase in gating (conductance) of ΔF508 CFTR in temperature-corrected ΔF508 CFTR NIH 3T3 cells. The driving force for the response is a ion gradient in conjunction with channel activation with forskolin in a single liquid addition step using a fluorescent plate reader such as FLIPR III after the cells have previously been treated with potentiator compounds (or DMSO vehicle control) and subsequently loaded with a redistribution dye.
Bath Solution #1: (in mM) NaCl 160, KCl 4.5, CaCl2 2, MgCl2 1, HEPES 10, pH 7.4 with NaOH. […]

What is called EC50 is the concentration needed to bring the measured effect to its halfway point.

T1 sequence (P13569 with tags, fused parts or gaps DEL508-508): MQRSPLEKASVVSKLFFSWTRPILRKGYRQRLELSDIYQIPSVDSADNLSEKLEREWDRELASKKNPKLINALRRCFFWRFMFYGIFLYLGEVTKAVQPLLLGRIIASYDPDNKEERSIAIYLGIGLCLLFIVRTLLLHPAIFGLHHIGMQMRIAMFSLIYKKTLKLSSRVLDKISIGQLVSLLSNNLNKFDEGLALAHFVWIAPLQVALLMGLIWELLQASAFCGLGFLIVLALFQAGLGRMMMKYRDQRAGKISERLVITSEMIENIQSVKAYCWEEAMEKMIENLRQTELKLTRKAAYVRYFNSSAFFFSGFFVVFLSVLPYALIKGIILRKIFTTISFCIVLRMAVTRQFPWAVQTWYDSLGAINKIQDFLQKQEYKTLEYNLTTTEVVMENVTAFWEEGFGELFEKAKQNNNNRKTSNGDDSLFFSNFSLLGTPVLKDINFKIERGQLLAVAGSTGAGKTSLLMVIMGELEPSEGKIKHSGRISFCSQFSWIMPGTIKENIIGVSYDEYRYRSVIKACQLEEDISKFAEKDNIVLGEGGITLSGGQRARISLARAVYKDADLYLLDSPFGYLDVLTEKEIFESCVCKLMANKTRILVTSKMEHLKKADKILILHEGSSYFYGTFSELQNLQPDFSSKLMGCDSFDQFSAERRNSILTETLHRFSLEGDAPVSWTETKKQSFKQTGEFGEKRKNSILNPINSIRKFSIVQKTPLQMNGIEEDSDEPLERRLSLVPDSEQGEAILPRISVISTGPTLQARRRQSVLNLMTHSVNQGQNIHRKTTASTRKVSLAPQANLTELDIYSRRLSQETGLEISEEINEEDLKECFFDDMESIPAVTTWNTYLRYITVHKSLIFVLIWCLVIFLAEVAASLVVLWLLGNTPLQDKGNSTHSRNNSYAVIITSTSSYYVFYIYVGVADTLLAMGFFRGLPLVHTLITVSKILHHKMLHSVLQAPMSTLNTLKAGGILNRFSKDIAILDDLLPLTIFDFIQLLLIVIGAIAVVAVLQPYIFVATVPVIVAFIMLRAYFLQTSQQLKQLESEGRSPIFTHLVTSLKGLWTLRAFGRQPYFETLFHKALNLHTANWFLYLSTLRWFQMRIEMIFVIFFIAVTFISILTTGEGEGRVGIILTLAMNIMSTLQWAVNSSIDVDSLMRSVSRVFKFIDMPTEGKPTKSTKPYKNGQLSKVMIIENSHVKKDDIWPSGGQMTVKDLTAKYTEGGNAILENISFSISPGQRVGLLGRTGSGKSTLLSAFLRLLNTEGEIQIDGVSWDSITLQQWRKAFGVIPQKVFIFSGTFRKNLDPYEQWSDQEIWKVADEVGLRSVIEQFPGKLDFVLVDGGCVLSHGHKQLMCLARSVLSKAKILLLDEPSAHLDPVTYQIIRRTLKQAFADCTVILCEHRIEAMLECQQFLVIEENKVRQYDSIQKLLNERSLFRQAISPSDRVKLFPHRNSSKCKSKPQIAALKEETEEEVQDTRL

For the molecule `O=C(Nc1ccc(N2C3CCC2CC3)cc1C(F)(F)F)c1c[nH]c2cccc(C(F)(F)F)c2c1=O` [Compound 1 Form A, N-(4-(7-azabicyclo[2.2.1]heptan-7-yl)-2-(trifluoromethyl)phenyl)-4-oxo-5-(trifluoromethyl)-1,4-dihydroquinoline-3-carboxamide], the EC50 was less than 2 µM.

Source of the values: patent US8754222B2, “Process for preparing modulators of cystic fibrosis transmembrane conductance regulator” (Vertex Pharmaceuticals Incorporated, priority 2009, dated 2014).
